In US20050197350A1, “Novel quinoline, tetrahydroquinazoline, and pyrimidine derivatives and methods of treatment related to the use thereof” (TAISHO PHARMACEUTICAL CO., LTD., priority 2003, published 2005):

test system: MCH receptors; test: MCH receptor activity class (method not given); conditions: MCH receptor; class by percent of control at 10^-7 M or IC50

Compound	class
Cc1onc(-c2c(F)cccc2Cl)c1C(=O)N[C@H]1CC[C@@H](Nc2cc(N(C)C)c3ccccc3n2)CC1 [compound 100, 3-(2-chloro-6-fluorophenyl)-N-(cis-4-{[4-(dimethylamino)quinolin-2-yl]amino}cyclohexyl)-5-methylisoxazole-4-carboxamide]	1 (Class 1: The value of percent of control at 10^−7 M was less than 40% or the value of IC50 was less than 50 nM.)
CC(C)S(=O)(=O)c1csc(C(=O)N[C@H]2CC[C@@H](Nc3cc(N(C)C)c4ccccc4n3)CC2)c1Cl [compound 101]	3 (Class 3 The value of percent of control at 10^−7 M was more than 60% or the value of IC50 was more than 200 nM.)
CN(C)c1cc(N[C@H]2CC[C@@H](NC(=O)c3ccc([N+](=O)[O-])cc3Cl)CC2)nc2ccccc12 [compound 102]	3 (Class 3 The value of percent of control at 10^−7 M was more than 60% or the value of IC50 was more than 200 nM.)
Cc1cc(C(=O)N[C@H]2CC[C@@H](Nc3cc(N(C)C)c4ccccc4n3)CC2)n(C)n1 [compound 103]	3 (Class 3 The value of percent of control at 10^−7 M was more than 60% or the value of IC50 was more than 200 nM.)
COc1ccc(C(=O)N[C@H]2CC[C@@H](Nc3cc(N(C)C)c4ccccc4n3)CC2)cc1OC [compound 104]	3 (Class 3 The value of percent of control at 10^−7 M was more than 60% or the value of IC50 was more than 200 nM.)
CN(C)c1cc(N[C@H]2CC[C@@H](NC(=O)c3cccc(F)c3)CC2)nc2ccccc12 [compound 105, N-(cis-4-{[4-(dimethylamino)quinolin-2-yl]amino}cyclohexyl)-3-fluorobenzamide]	2 (Class 2: The value of percent of control at 10^−7 M was from 40% to 60% or the value of IC′50 was from 50 nM to 200 nM.)
CN(C)c1cc(N[C@H]2CC[C@@H](NC(=O)c3ccc(F)c(C(F)(F)F)c3)CC2)nc2ccccc12 [compound 106, N-(cis-4-{[4-(dimethylamino)quinolin-2-yl]amino}cyclohexyl)-4-fluoro-3-(trifluoromethyl)benzamide]	1 (Class 1: The value of percent of control at 10^−7 M was less than 40% or the value of IC50 was less than 50 nM.)
Cc1nn(-c2ccccc2)nc1C(=O)N[C@H]1CC[C@@H](Nc2cc(N(C)C)c3ccccc3n2)CC1 [compound 107, N-(cis-4-{[4-(dimethylamino)quinolin-2-yl]amino}cyclohexyl)-5-methyl-2-phenyl-2H-1,2,3-triazole-4-carboxamide]	2 (Class 2: The value of percent of control at 10^−7 M was from 40% to 60% or the value of IC′50 was from 50 nM to 200 nM.)
COc1ccc(Oc2ccc([N+](=O)[O-])cc2C(=O)N[C@H]2CC[C@@H](Nc3cc(N(C)C)c4ccccc4n3)CC2)cc1 [compound 108, N-(cis-4-{[4-(dimethylamino)quinolin-2-yl]amino}cyclohexyl)-2-(4-methoxyphenoxy)-5-nitrobenzamide]	1 (Class 1: The value of percent of control at 10^−7 M was less than 40% or the value of IC50 was less than 50 nM.)
CN(C)c1cc(N[C@H]2CC[C@@H](NC(=O)c3cccc4ccccc34)CC2)nc2ccccc12 [compound 109]	3 (Class 3 The value of percent of control at 10^−7 M was more than 60% or the value of IC50 was more than 200 nM.)
CN(C)c1cc(N[C@H]2CC[C@@H](NC(=O)c3ccc4ccccc4c3)CC2)nc2ccccc12 [compound 110]	3 (Class 3 The value of percent of control at 10^−7 M was more than 60% or the value of IC50 was more than 200 nM.)
CN(C)c1cc(N[C@H]2CC[C@@H](NC(=O)c3ccc([N+](=O)[O-])o3)CC2)nc2ccccc12 [compound 111, N-(cis-4-{[4-(dimethylamino)quinolin-2-yl]amino}cyclohexyl)-5-nitro-2-furamide]	1 (Class 1: The value of percent of control at 10^−7 M was less than 40% or the value of IC50 was less than 50 nM.)
